Data published in ChEMBL document CHEMBL1255189, “Structural basis for binding of cyclic 2-oxoglutarate analogues to factor-inhibiting hypoxia-inducible factor” (Bioorg Med Chem Lett, 2010).
Active and inactive are the calls of the source. The rule behind the calls is not given here.

Assays:
[1] = target: Egl nine homolog 1 (Homo sapiens) (UniProt Q9GZT9); assay: Inhibition of PHD2 at 1 mM by HTRF assay
Prolyl hydroxylase EGLN2 = Prolyl hydroxylase EGLN2 (Homo sapiens, UniProt Q96KS0); assay: Inhibition of PHD1 by HTRF assay
Sequence of Prolyl hydroxylase EGLN2 (Q96KS0 whole entry): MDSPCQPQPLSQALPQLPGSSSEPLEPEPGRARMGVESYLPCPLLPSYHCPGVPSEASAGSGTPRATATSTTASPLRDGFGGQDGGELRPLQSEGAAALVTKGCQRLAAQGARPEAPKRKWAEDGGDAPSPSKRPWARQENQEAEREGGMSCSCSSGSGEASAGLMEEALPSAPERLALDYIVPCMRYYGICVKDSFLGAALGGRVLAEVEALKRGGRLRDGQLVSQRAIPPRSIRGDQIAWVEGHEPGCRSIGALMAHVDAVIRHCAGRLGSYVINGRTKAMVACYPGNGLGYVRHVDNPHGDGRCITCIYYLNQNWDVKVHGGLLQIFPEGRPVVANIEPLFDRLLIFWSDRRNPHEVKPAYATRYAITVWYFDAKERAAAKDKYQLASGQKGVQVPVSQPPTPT

[2] = Inhibition of FIH by HTRF assay

Sequence of Egl nine homolog 1 (Homo sapiens) (Q9GZT9 2-426 limits assumed): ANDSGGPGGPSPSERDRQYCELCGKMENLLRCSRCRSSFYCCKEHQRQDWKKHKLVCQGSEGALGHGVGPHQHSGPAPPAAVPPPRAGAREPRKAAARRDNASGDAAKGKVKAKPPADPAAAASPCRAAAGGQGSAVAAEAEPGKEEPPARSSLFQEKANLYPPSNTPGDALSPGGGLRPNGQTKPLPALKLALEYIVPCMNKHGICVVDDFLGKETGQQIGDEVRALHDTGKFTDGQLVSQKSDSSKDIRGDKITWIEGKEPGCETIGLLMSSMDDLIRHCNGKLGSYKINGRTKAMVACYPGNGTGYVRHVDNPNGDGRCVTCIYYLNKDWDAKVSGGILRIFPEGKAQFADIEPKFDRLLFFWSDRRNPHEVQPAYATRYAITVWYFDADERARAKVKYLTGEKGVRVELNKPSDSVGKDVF

Compound	inhibition [1]	IC50 (Prolyl hydroxylase EGLN2)	inhibition [2]
O=C(NO)c1cccc(O)c1	inactive		
O=C(O)CNC(=O)c1ccccn1	inactive	> 1000 µM	
O=C(O)CNC(=O)c1ccccc1O [SALICYLURIC ACID]		> 1000 µM	

Continued, values first:

inhibition [1]	IC50 (Prolyl hydroxylase EGLN2)	inhibition [2]	Compound
inactive	> 1000 µM		O=C(O)C(=O)c1cccc(O)c1
inactive	500 µM		O=C(O)C(S)c1cccc(O)c1 (stereo not drawn)
inactive	91.1 µM		O=C(O)CNC(=O)c1ncccc1O
inactive	625 µM	Active	O=C(O)c1ccnc(C(=O)O)c1
